Key:
MDA-MB-231 = test: MTS cell proliferation test, MDA-MB-231; settings: Homo sapiens, MDA-MB-231, 72 h, read-out: MDA231 IC50 (Mean ± SD);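 also: cells settled 24 h before compound addition, MTS absorbance at 490 nm, survival as percent of untreated cells after blank subtraction, IC50 fitted from survival versus concentration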
Protocol: (§1) The disclosed compounds and their pharmaceutically accepted salts are assayed for their anti-cancer activities by the following method. • MTS Cell Proliferation Test 1. Materials 1.1. […] Cell Lines
(§2) Two cell lines were used, both HCT116 and MDA-MB-231 were purchased from USATCC.
(§3) MTS reagent powder was purchased from Promega. Cat #G1111; PMS from Sigma, Cat #P8625; cell culture medium RPMI-1640, Cat #10040562R; DMEM, Cat #0013CVR; 100× sodium pyruvate solution Cat #136007; 100× Penicillin Streptomycin Solution, Cat ⊇15140122; 100× Penicillin Streptomycin Solution, Cat #15140122; 0.25% Trypsin (Parenzyme), Cat #25200-072; and fetal bovine serum, Cat #16000-044 were all purchased from Life Technologies.
(§4) • Thermo incubator (Format 371); • Heat force Biosafety Cabinet (HF sage 1500); • BioTek Microplate Reader (Synergy 2). 2. […] 2.3 Procedure of MTS Methods:
(§5) Cells at logarithmic phase were harvested, then digested with 0.25% trypsin, and re-suspense in complete growth medium. 150 uL/well of HCT-116 and MDA-MB-231 were dispensed into 96 well culture plates with 2.5×10^3 cell/well. The plates were pre-incubated in a humidified CO2 incubator at 37° C., 5% CO2) for 24 hours. 50 uL of various concentration of test compounds and reference compound were added. A negative control (only cells and culture medium without compound) and blank control (only culture medium without cells) were set at the same time. The plates were incubated for 72 hr in the incubator. The MTS/PMS solution was prepared and added into 96 well plates according to the test instruction by Promega Corporation. The plates were incubated again for some time, then the absorbance at 490 nm were measured using Biotek Instruments, Inc microplate reader and the cell survival rates calculated. Cell Survival Rate(%)=(At−Ab)/(Ac−Ab)×100% where, • At=Absorbance value of test compound • Ab=Absorbance value of blank • Ac=Absorbance value of control 3. Results

HCT116 = test: MTS cell proliferation test, HCT116; settings: Homo sapiens, HCT-116, 72 h, read-out: HCT116 IC50 (Mean ± SD);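 also: absorbance at 490 nm after MTS/PMS addition, survival relative to untreated cells (100%) after blank subtraction, IC50 from the concentration–survival curve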
Protocol: as §1, §2, §3, §4, §5

IC50 (MDA-MB-231) [µM]	IC50 (HCT116) [µM]	SMILES
1.77 ± 0.429	0.77 ± 0.014	O=C1C2=C(CCN(Cc3cccc(F)c3)C2)N2CCN=C2N1Cc1ccccc1C(F)(F)F [Compound I-50, 7-(3-fluorobenzyl)-4-(2-(trifluoromethyl)benzyl)-1,2,6,7,8,9-hexahydroimidazo[1,2-a]pyrido[3,4-e]pyrimidin-5(4H)-one]
0.73 ± 0.004	0.7 ± 0.001	O=C1C2=C(CCN(Cc3cccc(F)c3)C2)N2CCN=C2N1Cc1ccccc1Cl [Compound I-51, 4-(2-chlorobenzyl)-7-(3-fluorobenzyl)-1,2,6,7,8,9-hexahydroimidazo[1,2-a]pyrido[3,4-e]pyrimidin-5(4H)-one]
2.07 ± 0.115	1.18 ± 0.155	O=C1C2=C(CCN(Cc3cccc(F)c3)C2)N2CCN=C2N1Cc1ccccc1Br [Compound I-52, 4-(2-bromobenzyl)-7-(3-fluorobenzyl)-1,2,6,7,8,9-hexahydroimidazo[1,2-a]pyrido[3,4-e]pyrimidin-5(4H)-one]
0.73 ± 0.002	0.7 ± 0.001	O=C1C2=C(CCN(Cc3cccc(Br)c3)C2)N2CCN=C2N1Cc1ccccc1F [Compound I-53, 7-(3-bromobenzyl)-4-(2-fluorobenzyl)-1,2,6,7,8,9-hexahydroimidazo[1,2-a]pyrido[3,4-e]pyrimidin-5(4H)-one]
24.8 ± 2.58	21.41 ± 0.034	O=C1C2=C(CCN(Cc3cccc(Br)c3)C2)N2CCN=C2N1Cc1ccccc1C(F)(F)F [Compound I-54, 7-(3-bromobenzyl)-4-(2-(trifluoromethyl)benzyl)-1,2,6,7,8,9-hexahydroimidazo[1,2-a]pyrido[3,4-e]pyrimidin-5(4H)-one]
2.19 ± 0.039	2.14 ± 0.001	O=C1C2=C(CN(Cc3ccccc3)C2)N2CCN=C2N1Cc1ccccc1Br [Compound I-55, 2-Benzyl-5-(2-bromobenzyl)-2,3,7,8-tetrahydro-1H-imidazo[1,2-a]pyrrolo[3,4-e]pyrimidin-4(5H)-one]
2.05 ± 0.04	2.05 ± 0.03	O=C1C2=C(CN(Cc3ccccc3)C2)N2CCN=C2N1Cc1ccc(Cl)cc1Cl [Compound I-56, 2-benzyl-5-(2,4-dichlorobenzyl)-2,3,7,8-tetrahydro-1H-imidazo[1,2-a]pyrrolo[3,4-e]pyrimidin-4(5H)-one]
2.1 ± 0.07	2.08 ± 0.01	O=C1C2=C(CN(Cc3ccccc3)C2)N2CCN=C2N1Cc1ccc(Cl)c(C(F)(F)F)c1 [Compound I-57, 2-benzyl-5-(4-chloro-3-(trifluoromethyl)benzyl)-2,3,7,8-tetrahydro-1H-imidazo[1,2-a]pyrrolo[3,4-e]pyrimidin-4(5H)-one]

SMILES	IC50 (MDA-MB-231) [µM]	IC50 (HCT116) [µM]
Cc1ccccc1CN1C(=O)C2=C(CCN(Cc3ccccc3)C2)N2CCN=C12 [TIC10, 7-benzyl-4-(2-methylbenzyl)-1,2,6,7,8,9-hexahydroimidazo[1,2-a]pyrido[3,4-e]pyrimidin-5(4H)-one, reference compound]	0.79 ± 0.08	1.06 ± 0.24
